Experiments:
Format in all cases: in vivo
soybean (Glycine max) [1] = assay: Test A preemergence soil spray, visual injury rating 0-100; settings: 10 days, 0 = no effect, 100 = complete control
Summary of the method: (§1)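 Compound in a non-phytotoxic, surfactant-containing solvent is applied either as a directed soil spray before seedlings emerge or onto emerged plants 2-10 cm tall; pots hold a loam-sand blend. Plants grow 10 days under greenhouse conditions and are rated by eye against untreated controls (0 no effect, 100 complete control).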

[2] = tested on: green foxtail (Setaria viridis); assay: as above; settings: 10 days, 0 = no effect, 100 = complete control
Summary of the method: as §1

[3] = tested on: blackgrass (Alopecurus myosuroides); assay: as above; settings: 10 days, 0 = no effect, 100 = complete control
Summary of the method: as §1

corn (Zea mays) [4] = assay: as above; settings: 10 days, 0 = no effect, 100 = complete control
Summary of the method: as §1

[5] = tested on: ragweed (common ragweed, Ambrosia artemisiifolia); assay: as above; settings: 10 days, 0 = no effect, 100 = complete control
Summary of the method: as §1

[6] = tested on: barnyardgrass (Echinochloa crus-galli); assay: as above; settings: 10 days, 0 = no effect, 100 = complete control
Summary of the method: as §1

[7] = tested on: wheat (Triticum aestivum); assay: as above; settings: 10 days, 0 = no effect, 100 = complete control
Summary of the method: as §1

[8] = tested on: oat, wild (wild oat, Avena fatua); assay: as above; settings: 10 days, 0 = no effect, 100 = complete control
Summary of the method: as §1

[9] = tested on: ryegrass, Italian (italian ryegrass, Lolium multiflorum); assay: as above; settings: 10 days, 0 = no effect, 100 = complete control
Summary of the method: as §1

[10] = tested on: palmer (palmer amaranth, palmer pigweed, Amaranthus palmeri); assay: as above; settings: 10 days, 0 = no effect, 100 = complete control
Summary of the method: as §1

kochia (Bassia scoparia) [11] = assay: as above; settings: 10 days, 0 = no effect, 100 = complete control
Summary of the method: as §1

[12] = tested on: ducksalad (Heteranthera limosa); assay: Test B flooded paddy test, visual plant response rating 0-100; settings: 250 g ai/ha, Flood, applied to paddy water, evaluated after 13 days
Summary of the method: (§2)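 Visual scores versus untreated controls were recorded 13 days after treatment of greenhouse-held plants. At the 2-leaf stage, pots were flooded 3 cm above the soil surface and compounds added straight to the water.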

[13] = tested on: barnyardgrass (Echinochloa crusgalli); assay: as above; settings: 250 g ai/ha, Flood, applied to paddy water, evaluated after 13 days
Summary of the method: as §2

rice (Oryza sativa) = assay: as above; settings: 250 g ai/ha, Flood, applied to paddy water, evaluated after 13 days
Summary of the method: as §2

[14] = tested on: sedge, umbrella (small-flower umbrella sedge, Cyperus difformis); assay: as above; settings: 250 g ai/ha, Flood, applied to paddy water, evaluated after 13 days
Summary of the method: as §2

soybean (Glycine max) [15] = assay: Test A postemergence application, visual injury rating 0-100; settings: 10 days
Summary of the method: as §1

[16] = tested on: green foxtail (Setaria viridis); assay: as above; settings: 10 days
Summary of the method: as §1

[17] = tested on: blackgrass (Alopecurus myosuroides); assay: as above; settings: 10 days
Summary of the method: as §1

corn (Zea mays) [18] = assay: as above; settings: 10 days
Summary of the method: as §1

[19] = tested on: ragweed (common ragweed, Ambrosia artemisiifolia); assay: as above; settings: 10 days
Summary of the method: as §1

[20] = tested on: barnyardgrass (Echinochloa crus-galli); assay: as above; settings: 10 days
Summary of the method: as §1

[21] = tested on: wheat (Triticum aestivum); assay: as above; settings: 10 days
Summary of the method: as §1

[22] = tested on: oat, wild (wild oat, Avena fatua); assay: as above; settings: 10 days
Summary of the method: as §1

[23] = tested on: ryegrass, Italian (italian ryegrass, Lolium multiflorum); assay: as above; settings: 10 days
Summary of the method: as §1

[24] = tested on: horseweed (Erigeron canadensis); assay: as above; settings: 10 days
Summary of the method: as §1

[25] = tested on: palmer (palmer amaranth, palmer pigweed, Amaranthus palmeri); assay: as above; settings: 10 days
Summary of the method: as §1

kochia (Bassia scoparia) [26] = assay: as above; settings: 10 days
Summary of the method: as §1

[27] = tested on: galium (catchweed bedstraw, Galium aparine); assay: as above; settings: 10 days
Summary of the method: as §1

[28] = 31 g ai/ha, postemergence, 0 = no effect, 100 = complete control
[29] = Postemergence, 125 g ai/ha, 0 is no effect, 100 is complete control

SMILES: CCOC(=O)C1CCC(NC(=O)C2(C)CN(c3cc(F)cc(Cl)c3)C(=O)O2)C1 (stereo not shown) [Compound 19]
- Soybean plant response rating (0-100) (soybean (Glycine max) [1]; 31 g ai/ha): 0
- Soybean plant response rating (0 to 100 scale) (soybean (Glycine max) [1]; 125 g ai/ha): 20
- Foxtail, Green plant response rating (0-100) ([2]; 31 g ai/ha): 50
- Foxtail, Green plant response rating (0 to 100 scale) ([2]; 125 g ai/ha): 90
- Blackgrass plant response rating (0-100) ([3]; 31 g ai/ha): 0
- Blackgrass plant response rating (0 to 100 scale) ([3]; 125 g ai/ha): 50
- Corn plant response rating (0-100) (corn (Zea mays) [4]; 31 g ai/ha): 10
- Corn plant response rating (0 to 100 scale) (corn (Zea mays) [4]; 125 g ai/ha): 50
- Ragweed plant response rating (0-100) ([5]; 31 g ai/ha): 0
- Ragweed plant response rating (0 to 100 scale) ([5]; 125 g ai/ha): 0
- Barnyardgrass plant response rating (0-100) ([6]; 31 g ai/ha): 30
- Barnyardgrass plant response rating (0 to 100 scale) ([6]; 125 g ai/ha): 80
- Wheat plant response rating (0-100) ([7]; 31 g ai/ha): 70
- Wheat plant response rating (0 to 100 scale) ([7]; 125 g ai/ha): 90
- Oat, Wild plant response rating (0-100) ([8]; 31 g ai/ha): 0
- Oat, Wild plant response rating (0 to 100 scale) ([8]; 125 g ai/ha): 60
- Ryegrass, Italian plant response rating (0-100) ([9]; 31 g ai/ha): 80
- Ryegrass, Italian plant response rating (0 to 100 scale) ([9]; 125 g ai/ha): 80
- Amaranth, Palmer plant response rating (0-100) ([10]; 31 g ai/ha): 30
- Amaranth, Palmer plant response rating (0 to 100 scale) ([10]; 125 g ai/ha): 90
- Kochia plant response rating (0-100) (kochia (Bassia scoparia) [11]; 31 g ai/ha): 0
- Kochia plant response rating (0 to 100 scale) (kochia (Bassia scoparia) [11]; 125 g ai/ha): 90
- Plant response rating, Ducksalad (0 to 100 scale, 0 is no effect and 100 is complete control) [12]: 70
- Plant response rating, Barnyardgrass (0 to 100 scale, 0 is no effect and 100 is complete control) [13]: 65
- Plant response rating, Rice (0 to 100 scale, 0 is no effect and 100 is complete control) (rice (Oryza sativa)): 0
- Plant response rating, Sedge, Umbrella (0 to 100 scale, 0 is no effect and 100 is complete control) [14]: 60
- Soybean plant response rating (0-100) (soybean (Glycine max) [15]; [28]): 50
- Soybean plant response rating (0 to 100 scale) (soybean (Glycine max) [15]; [29]): 60
- Foxtail, Green plant response rating (0-100) [16, 28]: 40
- Foxtail, Green plant response rating (0 to 100 scale) [16, 29]: 90
- Blackgrass plant response rating (0-100) [17, 28]: 70
- Blackgrass plant response rating (0 to 100 scale) [17, 29]: 90
- Corn plant response rating (0-100) (corn (Zea mays) [18]; [28]): 50
- Corn plant response rating (0 to 100 scale) (corn (Zea mays) [18]; [29]): 100
- Ragweed plant response rating (0-100) [19, 28]: 0
- Ragweed plant response rating (0 to 100 scale) [19, 29]: 40
- Barnyardgrass plant response rating (0-100) [20, 28]: 60
- Barnyardgrass plant response rating (0 to 100 scale) [20, 29]: 100
- Wheat plant response rating (0-100) [21, 28]: 80
- Wheat plant response rating (0 to 100 scale) [21, 29]: 90
- Oat, Wild plant response rating (0-100) [22, 28]: 90
- Oat, Wild plant response rating (0 to 100 scale) [22, 29]: 90
- Ryegrass, Italian plant response rating (0-100) [23, 28]: 90
- Ryegrass, Italian plant response rating (0 to 100 scale) [23, 29]: 90
- Horseweed plant response rating (0-100) [24, 28]: 0
- Horseweed plant response rating (0 to 100 scale) [24, 29]: 0
- Amaranth, Palmer plant response rating (0-100) [25, 28]: 30
- Amaranth, Palmer / Pigweed, Palmer plant response rating (0 to 100 scale) [25, 29]: 90
- Kochia plant response rating (0-100) (kochia (Bassia scoparia) [26]; [28]): 10
- Kochia plant response rating (0 to 100 scale) (kochia (Bassia scoparia) [26]; [29]): 70
- Galium plant response rating (0-100) [27, 28]: 80
- Galium plant response rating (0 to 100 scale) [27, 29]: 80

Source: patent US20260285850A1, “SUBSTITUTED OXAZOLIDINONES AND IMIDAZOLINONES AS HERBICIDES” (FMC CORPORATION, priority 2023, published 2026)
